Experimental data as given in patent US9512087B2, “Hybrid molecules containing pharmacophores of fluconazole as antifungal agents and their preparation” (Council for Scientific & Industrial Research, priority 2011, dated 2016).
In brackets after ≈: the same amount, converted by molar mass.

What was measured:
Assay in all cases: Antifungal MIC, broth dilution
C. glabrata ATCC 90030 = format: cell-based; conditions: end point 48 hours; for MIC50: Nakaseomyces glabratus, ATCC90030, RPMI 1640 with MOPS, read-out: Cg01 MIC50; for Cg01 MIC50: RPMI 1640 with MOPS
C. krusei ATCC 6258 = format: cell-based; conditions: end point 48 hours; for MIC50: Pichia kudriavzevii, ATCC6258, RPMI 1640 with MOPS, read-out: Ck01 MIC50; for Ck01 MIC50: RPMI 1640 with MOPS
C. albicans ATCC 24433 = format: cell-based, Candida albicans; conditions: end point 48 hours; for MIC80 / MIC50: Candida albicans, ATCC24433, RPMI 1640 with MOPS; for MIC80: read-out: Ca01 A: MIC80; for MIC50: read-out: Ca01 B: MIC50; for Ca01 A: MIC80 / Ca01 B: MIC50: RPMI 1640 with MOPS
Procedure: (§1) The compounds of Formula 1 were tested for antifungal activity against Candida albicans, Aspergillus niger and Fusarium proliferatum. In vitro evaluation of antifungal activity was performed by determining the minimum inhibitory concentration (MIC) following standard methods (CLSI: Reference method for broth dilution antifungal susceptibility testing of yeasts; Approved standard, second edition M27-A2, 2002; CLSI: Reference method for broth dilution antifungal susceptibility testing of filamentous fungi; Approved standard M38-A, 2002). Anti-fungal susceptibility testing of these anti-fungal compounds was done by broth dilution method using RPMI 1640 medium with MOPS buffer. Known anti-fungal agents like fluconazole and amphotericin-B were used as positive control. End points were determined after 48 hours visually and by using spectrophotometer wherever necessary. Different dilutions were tried and various sets of experiments performed. The activity parameters are enumerated in Table 5.

A. niger ATCC 16404 = format: cell-based, Aspergillus niger; conditions: end point 48 hours; for MIC50: Aspergillus niger, ATCC16404, RPMI 1640 with MOPS, read-out: An01 MIC50; for An01 MIC50: RPMI 1640 with MOPS
Procedure: as §1

C. neoformans ATCC 34664 = format: cell-based; conditions: end point 48 hours; for MIC50: Cryptococcus neoformans, ATCC34664, RPMI 1640 with MOPS, read-out: Cn01 MIC50; for Cn01 MIC50: RPMI 1640 with MOPS
A. fumigatus ATCC 46645 = format: cell-based; conditions: end point 48 hours; for MIC50: Aspergillus fumigatus, ATCC46645, RPMI 1640 with MOPS, read-out: Afm01 MIC50; for Afm01 MIC50: RPMI 1640 with MOPS
[1] = tested on: F. proliferatum ATCC 10052; format: cell-based, Fusarium proliferatum; conditions: end point 48 hours; for MIC50: Fusarium proliferatum, ATCC10052, RPMI 1640 with MOPS, read-out: Fp01 MIC50; for Fp01 MIC50: RPMI 1640 with MOPS
Procedure: as §1

C. tropicalis ATCC 750 = format: cell-based; conditions: end point 48 hours; for MIC50: Candida tropicalis, ATCC750, RPMI 1640 with MOPS, read-out: Ct01 MIC50; for Ct01 MIC50: RPMI 1640 with MOPS

Row | MIC50 (C. glabrata ATCC 90030) | MIC50 (C. krusei ATCC 6258) | MIC80 (C. albicans ATCC 24433) | MIC50 (C. albicans ATCC 24433) | MIC50 (A. niger ATCC 16404) | MIC50 (C. neoformans ATCC 34664) | MIC50 (A. fumigatus ATCC 46645) | MIC50 [1] | MIC50 (C. tropicalis ATCC 750) | Cg01 MIC50 (C. glabrata ATCC 90030) | Ck01 MIC50 (C. krusei ATCC 6258) | Ca01 A: MIC80 (C. albicans ATCC 24433) | Ca01 B: MIC50 (C. albicans ATCC 24433) | An01 MIC50 (A. niger ATCC 16404) | Cn01 MIC50 (C. neoformans ATCC 34664) | Afm01 MIC50 (A. fumigatus ATCC 46645) | Fp01 MIC50 [1] | Ct01 MIC50 (C. tropicalis ATCC 750) | SMILES
1 | 1 µg/mL (≈ 1.87 µM) | > 4 µg/mL | 1 µg/mL (≈ 1.87 µM) | 0.5 µg/mL (≈ 0.936 µM) | > 4 µg/mL | 1 µg/mL (≈ 1.87 µM) | > 4 µg/mL | > 4 µg/mL | > 4 µg/mL |  |  |  |  |  |  |  |  |  | COc1ccc(/C=C/C(=O)c2ccc(OCC(O)(Cn3cncn3)c3ccc(Br)cc3)cc2)cc1 (stereo not drawn) [Compound 1A-11]
2 | 0.5 µg/mL (≈ 0.915 µM) | 4 µg/mL (≈ 7.32 µM) | 0.5 µg/mL (≈ 0.915 µM) | 0.5 µg/mL (≈ 0.915 µM) | > 4 µg/mL | 1 µg/mL (≈ 1.83 µM) | > 4 µg/mL | > 4 µg/mL | 1 µg/mL (≈ 1.83 µM) |  |  |  |  |  |  |  |  |  | O=C(c1ccc(OCC(O)(Cn2cncn2)c2ccc(F)cc2F)cc1)C1OC1c1ccc(Cl)cc1Cl (stereo not drawn) [Compound 1B-2, (3-(2,4-dichlorophenyl)oxiran-2-yl) (4-(2-(2,4-difluorophenyl)-2-hydroxy-3-(1H-1,2,4-triazol-1-yl)propoxy)phenyl)methanone]
3 | 0.03 µg/mL (≈ 0.0642 µM) | 2 µg/mL (≈ 4.28 µM) | 0.12 µg/mL (≈ 0.257 µM) | 0.03 µg/mL (≈ 0.0642 µM) | > 4 µg/mL | 0.5 µg/mL (≈ 1.07 µM) | > 4 µg/mL | > 4 µg/mL | 0.12 µg/mL (≈ 0.257 µM) |  |  |  |  |  |  |  |  |  | O=C(/C=C/c1cccs1)c1ccc(OC[C@](O)(Cn2cncn2)c2ccc(F)cc2F)cc1 [R-(−)-1A-13]
4 | 1 µg/mL (≈ 1.84 µM) | > 4 µg/mL | > 4 µg/mL | 1 µg/mL (≈ 1.84 µM) | > 4 µg/mL | > 4 µg/mL | > 4 µg/mL | > 4 µg/mL | > 4 µg/mL |  |  |  |  |  |  |  |  |  | COC(COc1ccc(C(=O)/C=C/c2ccc(Cl)cc2Cl)cc1)(Cn1cncn1)c1ccc(F)cc1F (stereo not drawn) [Compound 1A-19, (E)-3-(2,4-dichlorophenyl)-1-(4-(2-(2,4-difluorophenyl)-2-methoxy-3-(1H-1,2,4-triazol-1-yl)propoxy)phenyl)prop-2-en-1-one]
5 |  |  |  |  |  |  |  |  |  | >2 µg/mL | >2 µg/mL | >2 µg/mL | >2 µg/mL | >2 µg/mL | >2 µg/mL | >2 µg/mL | >2 µg/mL | >2 µg/mL | CCCCCCCCOc1ccc(/C=C/C(=O)c2ccc(OCC(O)(Cn3cncn3)c3ccc(F)cc3F)cc2)cc1 (stereo not drawn) [Compound 1A-9]
6 | 1 µg/mL (≈ 1.92 µM) | 2 µg/mL (≈ 3.83 µM) | 0.5 µg/mL (≈ 0.959 µM) | 0.5 µg/mL (≈ 0.959 µM) | > 4 µg/mL | 1 µg/mL (≈ 1.92 µM) | > 4 µg/mL | > 4 µg/mL | 0.5 µg/mL (≈ 0.959 µM) |  |  |  |  |  |  |  |  |  | COc1ccc(C(=O)/C=C/c2ccc(OCC(O)(Cn3cncn3)c3ccc(F)cc3F)c(OC)c2)cc1 (stereo not drawn) [Compound 1A-23]
7 | > 4 µg/mL | > 4 µg/mL | > 4 µg/mL | > 4 µg/mL | > 4 µg/mL | > 4 µg/mL | > 4 µg/mL | > 4 µg/mL | > 4 µg/mL |  |  |  |  |  |  |  |  |  | C=CCOC(COc1ccc(C(=O)/C=C/c2ccc(Cl)cc2Cl)cc1)(Cn1cncn1)c1ccc(F)cc1F (stereo not drawn) [Compound 1A-18, (E)-1-(4-(2-(Allyloxy)-2-(2,4-difluorophenyl)-3-(1H-1,2,4-triazol-1-yl)propoxy)phenyl)-3-(2,4-dichlorophenyl)prop-2-en-1-one]
8 |  |  |  |  |  |  |  |  |  | 0.12 µg/mL | >4 µg/mL | 8 µg/mL | 4 µg/mL | >4 µg/mL | >4 µg/mL | >4 µg/mL | >4 µg/mL | >4 µg/mL | CCCCCCCCOc1ccc(C(=O)/C=C/c2ccc(OCC(O)(Cn3cncn3)c3ccc(F)cc3F)cc2)cc1 (stereo not drawn) [Compound 1A-24]
9 | 0.25 µg/mL (≈ 0.556 µM) | 8 µg/mL (≈ 17.8 µM) | 0.5 µg/mL (≈ 1.11 µM) | 0.25 µg/mL (≈ 0.556 µM) | > 8 µg/mL | 1 µg/mL (≈ 2.22 µM) | > 8 µg/mL | > 8 µg/mL | 2 µg/mL (≈ 4.45 µM) |  |  |  |  |  |  |  |  |  | O=C(/C=C/c1cccs1)c1ccc(OCC(O)(Cn2cncn2)c2ccc(F)cc2)cc1 (stereo not drawn) [Compound 1A-17]
10 | 1 µg/mL (≈ 1.81 µM) | > 4 µg/mL | 1 µg/mL (≈ 1.81 µM) | 0.25 µg/mL (≈ 0.453 µM) | > 4 µg/mL | > 4 µg/mL | > 4 µg/mL | > 4 µg/mL | 1 µg/mL (≈ 1.81 µM) |  |  |  |  |  |  |  |  |  | COc1cc(/C=C/C(=O)c2ccc(OCC(O)(Cn3cncn3)c3ccc(F)cc3F)cc2)cc(OC)c1OC (stereo not drawn) [Compound 1A-5]
